Measured values as given in patent US10357493B2, “Metalloenzyme inhibitor compounds” (Selenity Therapeutics (Bermuda), Ltd., priority 2017, dated 2019).
Read-outs that look alike come from different tables or passages of the source.

Legend:
Assay type in all cases: biochemical
HDAC1 = HDAC1 (Homo sapiens (Human), UniProt Q13547); experiment: HDAC1 enzymatic assay
Summary of the method: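 HDAC1 activity was measured in duplicate 50 μl reactions containing 0.5 ng HDAC1, 10 uM of HDAC substrate, and test compound in buffer (50 mM Tris-HCl, pH 7.4, 137 mM NaCl, 2.7 mM KCl, 0.05% Tween 20, 5 μg BSA) with 1% DMSO, incubated 17 hours at room temperature. HDAC Developer was then added for 20 minutes and fluorescence read at 360/460 nm.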

HDAC2 = HDAC2 (Homo sapiens (Human), UniProt Q92769); experiment: HDAC2 enzymatic assay; conditions: selectivity profile; read-out: HDAC Enzyme IC50, HDAC 2
HDAC2, sequence (Q92769 whole entry, species assumed): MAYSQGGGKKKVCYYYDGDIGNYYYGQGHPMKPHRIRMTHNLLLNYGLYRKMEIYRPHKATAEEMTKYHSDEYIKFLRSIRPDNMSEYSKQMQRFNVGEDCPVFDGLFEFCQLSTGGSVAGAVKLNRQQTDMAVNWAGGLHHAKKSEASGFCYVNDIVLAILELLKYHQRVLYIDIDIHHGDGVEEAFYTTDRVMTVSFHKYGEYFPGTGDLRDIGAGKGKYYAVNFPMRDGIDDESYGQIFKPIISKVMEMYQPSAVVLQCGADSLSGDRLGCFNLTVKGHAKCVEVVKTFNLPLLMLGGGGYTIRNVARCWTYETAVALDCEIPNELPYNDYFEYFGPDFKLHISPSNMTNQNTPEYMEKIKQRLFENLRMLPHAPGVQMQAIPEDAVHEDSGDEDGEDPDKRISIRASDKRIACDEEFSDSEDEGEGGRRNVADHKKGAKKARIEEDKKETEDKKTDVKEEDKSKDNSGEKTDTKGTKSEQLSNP
Description: (§1) All enzymatic reactions were conducted in duplicate at room temperature for 17 hours in a 50 μl mixture containing HDAC assay buffer (50 mM Tris-HCl, pH 7.4, 137 mM NaCl, 2.7 mM KCl, 0.05% Tween 20, 5 μg BSA), an HDAC substrate, an HDAC enzyme, and a test compound. Compound dilution was prepared ten-fold higher than the final concentration of the compounds with 10% DMSO in HDAC assay buffer and 5 μl of the dilution was added to a 50 μl reaction so that the final concentration of DMSO is 1% in all of reactions. After enzymatic reactions, 50 μl of HDAC Developer was added to each well and the plate was incubated at room temperature for an additional 20 minutes. Fluorescence intensity was measured at an excitation of 360 nm and an emission of 460 nm using a Tecan Infinite M1000 or Biotek Synergy microplate reader.
(§2) The fluorescent intensity data were analyzed using the computer software, Graphpad Prism. In the absence of the compound, the fluorescent intensity (Ft) in each data set was defined as 100% activity. In the absence of HDAC, the fluorescent intensity (Fb) in each data set was defined as 0% activity. The percent activity in the presence of each compound was calculated according to the following equation: % activity=(F−Fb)/(Ft−Fb), where F=the fluorescent intensity in the presence of the compound.
(§3) The values of % activity versus a series of compound concentrations were then plotted using non-linear regression analysis of Sigmoidal dose-response curve generated with the equation Y=B+(T−B)/1+10((Log EC50−X)×Hill Slope), where Y=percent activity, B=minimum percent activity, T=maximum percent activity, X=logarithm of compound and Hill Slope=slope factor or Hill coefficient. The IC50 value was determined by the concentration causing a half-maximal percent activity.
(§4) HDAC1 enzymatic assays contained 0.5 ng HDAC1 and 10 uM of HDAC substrate. HDAC2 enzymatic assays contained 0.5 ng HDAC2 and 10 uM of HDAC substrate. HDAC3 enzymatic assays contained 0.4 ng HDAC3/NCOR2 and 10 uM of HDAC substrate. HDAC4 enzymatic assays contained 0.02 ng HDAC4 and 2 uM of HDAC substrate. HDAC5 enzymatic assays contained 0.5 ng HDAC5 and 2 uM of HDAC substrate. HDAC6 enzymatic assays contained 2 ng HDAC6 and 10 uM of HDAC substrate. HDAC7 enzymatic assays contained 0.05 ng HDAC7 and 2 uM of HDAC substrate. HDAC8 enzymatic assays contained 5 ng HDAC8 and 2 uM of HDAC substrate. HDAC9 enzymatic assays contained 1 ng HDAC9 and 2 uM of HDAC substrate. HDAC10 enzymatic assays contained 75 ng HDAC10 and 10 uM of HDAC substrate. HDAC11 enzymatic assays contained 5 ng HDAC11 and 2 uM of HDAC substrate.

HDAC3/NCOR2 = HDAC3/NCOR2 (Homo sapiens (Human), UniProt O15379); experiment: HDAC3 enzymatic assay; conditions: selectivity profile; read-out: HDAC Enzyme IC50, HDAC 3
Description: as §1, §2, §3, §4

HDAC4 = HDAC4 (Homo sapiens (Human), UniProt P56524); experiment: HDAC4 enzymatic assay; conditions: selectivity profile; read-out: HDAC Enzyme IC50, HDAC 4
HDAC4, sequence (P56524 whole entry, species assumed): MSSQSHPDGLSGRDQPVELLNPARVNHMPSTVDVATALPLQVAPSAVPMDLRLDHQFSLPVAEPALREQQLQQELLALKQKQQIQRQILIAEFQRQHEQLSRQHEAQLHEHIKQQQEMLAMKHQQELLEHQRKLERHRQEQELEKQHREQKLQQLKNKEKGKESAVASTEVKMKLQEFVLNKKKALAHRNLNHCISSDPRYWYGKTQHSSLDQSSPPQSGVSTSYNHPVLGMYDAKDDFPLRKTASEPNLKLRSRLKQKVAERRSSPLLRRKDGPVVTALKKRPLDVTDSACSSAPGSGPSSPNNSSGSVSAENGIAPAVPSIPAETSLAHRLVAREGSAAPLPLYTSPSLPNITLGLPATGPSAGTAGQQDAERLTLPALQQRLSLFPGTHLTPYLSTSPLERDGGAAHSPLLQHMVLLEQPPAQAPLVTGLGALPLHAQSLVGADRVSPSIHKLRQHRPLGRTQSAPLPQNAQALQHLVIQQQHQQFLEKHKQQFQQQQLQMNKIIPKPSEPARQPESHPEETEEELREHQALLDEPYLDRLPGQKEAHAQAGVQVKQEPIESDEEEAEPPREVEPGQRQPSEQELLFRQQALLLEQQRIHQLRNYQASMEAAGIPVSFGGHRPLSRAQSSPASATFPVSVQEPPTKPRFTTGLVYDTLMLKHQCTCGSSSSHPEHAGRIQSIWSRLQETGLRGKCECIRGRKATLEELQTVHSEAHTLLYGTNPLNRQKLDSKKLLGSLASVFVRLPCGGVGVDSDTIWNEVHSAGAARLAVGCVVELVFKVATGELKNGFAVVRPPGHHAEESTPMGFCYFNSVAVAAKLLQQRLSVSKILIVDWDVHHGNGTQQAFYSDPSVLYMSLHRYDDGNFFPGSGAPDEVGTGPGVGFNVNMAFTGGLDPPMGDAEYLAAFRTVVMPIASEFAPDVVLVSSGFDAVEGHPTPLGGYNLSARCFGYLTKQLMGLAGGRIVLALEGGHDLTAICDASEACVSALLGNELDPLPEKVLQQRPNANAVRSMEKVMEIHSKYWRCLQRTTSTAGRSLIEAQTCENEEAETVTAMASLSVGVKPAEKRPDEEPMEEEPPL
Description: as §1, §2, §3, §4

HDAC5 = HDAC5 (Homo sapiens (Human), UniProt Q9UQL6); experiment: HDAC5 enzymatic assay; conditions: selectivity profile; read-out: HDAC Enzyme IC50, HDAC 5
Description: as §1, §2, §3, §4

HDAC6 = HDAC6 (Homo sapiens (Human), UniProt Q9UBN7); experiment: HDAC6 enzymatic assay
HDAC6, sequence (Q9UBN7 whole entry): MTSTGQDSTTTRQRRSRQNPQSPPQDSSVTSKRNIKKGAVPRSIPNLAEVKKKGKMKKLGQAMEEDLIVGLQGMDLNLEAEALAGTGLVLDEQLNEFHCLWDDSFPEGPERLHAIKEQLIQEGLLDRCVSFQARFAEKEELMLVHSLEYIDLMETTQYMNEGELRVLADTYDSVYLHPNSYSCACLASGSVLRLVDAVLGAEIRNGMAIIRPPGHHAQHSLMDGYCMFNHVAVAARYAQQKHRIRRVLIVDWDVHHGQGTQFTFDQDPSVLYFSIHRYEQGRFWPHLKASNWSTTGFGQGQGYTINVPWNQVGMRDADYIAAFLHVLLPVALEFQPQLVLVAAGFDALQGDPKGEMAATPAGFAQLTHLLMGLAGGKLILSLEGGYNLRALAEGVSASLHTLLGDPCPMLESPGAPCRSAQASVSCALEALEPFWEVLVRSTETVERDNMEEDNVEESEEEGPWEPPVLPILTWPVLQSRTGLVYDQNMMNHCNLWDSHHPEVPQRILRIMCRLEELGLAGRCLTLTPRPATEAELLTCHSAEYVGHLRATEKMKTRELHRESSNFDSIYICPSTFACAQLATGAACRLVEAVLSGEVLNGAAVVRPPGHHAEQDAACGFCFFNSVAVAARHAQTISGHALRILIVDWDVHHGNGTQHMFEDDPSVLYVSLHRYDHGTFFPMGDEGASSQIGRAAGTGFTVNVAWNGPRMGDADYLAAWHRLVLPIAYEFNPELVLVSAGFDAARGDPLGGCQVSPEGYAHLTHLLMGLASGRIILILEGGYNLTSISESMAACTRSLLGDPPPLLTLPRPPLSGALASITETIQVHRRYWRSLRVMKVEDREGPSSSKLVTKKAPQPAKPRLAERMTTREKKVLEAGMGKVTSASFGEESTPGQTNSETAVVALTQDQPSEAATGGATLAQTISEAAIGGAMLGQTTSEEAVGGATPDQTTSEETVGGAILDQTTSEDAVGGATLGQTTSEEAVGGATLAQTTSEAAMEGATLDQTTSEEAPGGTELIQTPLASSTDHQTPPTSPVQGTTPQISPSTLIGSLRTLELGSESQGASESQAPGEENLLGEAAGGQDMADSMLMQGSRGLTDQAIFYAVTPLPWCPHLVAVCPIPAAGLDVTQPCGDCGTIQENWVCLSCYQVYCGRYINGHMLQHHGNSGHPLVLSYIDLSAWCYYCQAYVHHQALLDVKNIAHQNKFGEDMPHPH
Summary of the method: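 Human HDAC6 activity was measured in duplicate 50 μl reactions holding 2 ng HDAC6, 10 uM of HDAC substrate and test compound in HDAC assay buffer (50 mM Tris-HCl, pH 7.4, 137 mM NaCl, 2.7 mM KCl, 0.05% Tween 20, 5 μg BSA) with 1% DMSO, for 17 hours at room temperature. HDAC Developer was added for 20 minutes before reading fluorescence at 360/460 nm.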

HDAC7 = HDAC7 (Homo sapiens (Human), UniProt Q8WUI4); experiment: HDAC7 enzymatic assay; conditions: selectivity profile; read-out: HDAC Enzyme IC50, HDAC 7
Description: as §1, §2, §3, §4

HDAC8 = HDAC8 (Homo sapiens (Human), UniProt Q9BY41); experiment: HDAC8 enzymatic assay; conditions: selectivity profile; read-out: HDAC Enzyme IC50, HDAC 8
HDAC8, sequence (Q9BY41 whole entry, species assumed): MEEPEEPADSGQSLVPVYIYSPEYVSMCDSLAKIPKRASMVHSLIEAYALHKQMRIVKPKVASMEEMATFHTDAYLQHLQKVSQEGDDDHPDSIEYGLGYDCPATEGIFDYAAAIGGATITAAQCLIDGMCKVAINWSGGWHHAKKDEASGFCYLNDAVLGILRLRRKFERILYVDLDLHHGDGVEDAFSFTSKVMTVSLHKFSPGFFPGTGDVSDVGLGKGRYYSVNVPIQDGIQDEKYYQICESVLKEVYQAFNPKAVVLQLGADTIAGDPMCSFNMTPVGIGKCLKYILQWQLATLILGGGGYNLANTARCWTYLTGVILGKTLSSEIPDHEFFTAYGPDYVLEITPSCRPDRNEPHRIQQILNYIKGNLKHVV
Description: as §1, §2, §3, §4

HDAC9 = HDAC9 (Homo sapiens (Human), UniProt Q9UKV0); experiment: HDAC9 enzymatic assay; conditions: selectivity profile; read-out: HDAC Enzyme IC50, HDAC 9
HDAC9, sequence (Q9UKV0 whole entry, species assumed): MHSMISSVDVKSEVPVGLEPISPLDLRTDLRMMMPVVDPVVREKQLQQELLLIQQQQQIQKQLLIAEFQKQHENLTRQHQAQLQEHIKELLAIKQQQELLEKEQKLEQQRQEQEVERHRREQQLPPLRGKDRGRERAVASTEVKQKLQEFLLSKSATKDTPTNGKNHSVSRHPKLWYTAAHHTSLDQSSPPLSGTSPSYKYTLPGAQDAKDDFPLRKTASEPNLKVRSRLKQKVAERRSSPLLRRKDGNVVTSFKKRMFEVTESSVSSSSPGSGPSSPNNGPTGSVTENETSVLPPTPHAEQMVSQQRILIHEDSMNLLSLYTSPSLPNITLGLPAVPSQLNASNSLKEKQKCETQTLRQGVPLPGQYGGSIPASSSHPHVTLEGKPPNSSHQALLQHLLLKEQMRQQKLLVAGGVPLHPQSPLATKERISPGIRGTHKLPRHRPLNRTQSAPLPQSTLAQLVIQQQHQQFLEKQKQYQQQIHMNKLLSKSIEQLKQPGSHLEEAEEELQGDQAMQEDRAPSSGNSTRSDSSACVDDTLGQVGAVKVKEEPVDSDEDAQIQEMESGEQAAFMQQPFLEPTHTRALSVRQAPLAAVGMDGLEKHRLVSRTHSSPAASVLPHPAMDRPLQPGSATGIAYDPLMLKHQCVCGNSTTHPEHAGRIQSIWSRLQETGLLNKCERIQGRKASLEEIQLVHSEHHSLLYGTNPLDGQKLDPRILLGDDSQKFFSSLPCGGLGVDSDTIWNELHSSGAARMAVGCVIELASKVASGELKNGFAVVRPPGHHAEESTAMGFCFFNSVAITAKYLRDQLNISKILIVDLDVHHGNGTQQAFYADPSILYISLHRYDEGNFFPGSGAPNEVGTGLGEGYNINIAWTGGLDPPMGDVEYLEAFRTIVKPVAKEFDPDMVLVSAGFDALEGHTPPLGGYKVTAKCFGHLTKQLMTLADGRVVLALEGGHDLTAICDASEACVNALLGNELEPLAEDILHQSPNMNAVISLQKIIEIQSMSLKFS
Description: as §1, §2, §3, §4

HDAC10 = HDAC10 (Homo sapiens (Human), UniProt Q969S8); experiment: HDAC10 enzymatic assay; conditions: selectivity profile; read-out: HDAC Enzyme IC50, HDAC 10
Description: as §1, §2, §3, §4

HDAC11 = HDAC11 (Homo sapiens (Human), UniProt Q96DB2); experiment: HDAC11 enzymatic assay; conditions: selectivity profile; read-out: HDAC Enzyme IC50, HDAC 11
HDAC11, sequence (Q96DB2 whole entry, species assumed): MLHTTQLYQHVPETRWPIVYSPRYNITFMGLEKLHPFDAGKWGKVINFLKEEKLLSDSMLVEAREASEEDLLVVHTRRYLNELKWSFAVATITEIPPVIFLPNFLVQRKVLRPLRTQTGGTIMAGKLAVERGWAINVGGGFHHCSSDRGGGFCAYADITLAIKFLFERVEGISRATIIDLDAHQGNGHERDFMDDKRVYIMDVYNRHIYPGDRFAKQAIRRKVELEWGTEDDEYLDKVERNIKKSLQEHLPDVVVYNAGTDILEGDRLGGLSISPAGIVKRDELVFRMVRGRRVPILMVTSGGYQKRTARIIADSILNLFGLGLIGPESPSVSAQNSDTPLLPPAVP
Description: as §1, §2, §3, §4

[1] = selectivity profile, read-out: HDAC Enzyme IC50, HDAC 1
[2] = selectivity profile, read-out: HDAC Enzyme IC50, HDAC 6

HDAC1, sequence (Q13547 whole entry): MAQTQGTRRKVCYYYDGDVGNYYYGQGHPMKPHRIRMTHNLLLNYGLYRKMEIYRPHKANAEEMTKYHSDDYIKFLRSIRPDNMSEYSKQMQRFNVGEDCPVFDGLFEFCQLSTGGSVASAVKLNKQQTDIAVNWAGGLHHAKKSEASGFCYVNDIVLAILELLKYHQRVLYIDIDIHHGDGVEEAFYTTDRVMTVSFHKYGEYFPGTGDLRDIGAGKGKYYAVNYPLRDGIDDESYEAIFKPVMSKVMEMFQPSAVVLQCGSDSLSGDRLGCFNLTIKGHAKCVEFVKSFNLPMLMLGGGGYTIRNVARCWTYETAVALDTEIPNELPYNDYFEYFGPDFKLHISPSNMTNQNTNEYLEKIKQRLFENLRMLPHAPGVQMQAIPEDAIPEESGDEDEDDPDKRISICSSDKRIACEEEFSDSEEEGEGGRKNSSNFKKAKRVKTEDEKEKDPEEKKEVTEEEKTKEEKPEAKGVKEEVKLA

IC50 (HDAC1; read-out: Human HDAC1 IC50) [µM] | IC50 (HDAC1; [1]) [µM] | IC50 (HDAC2) [µM] | IC50 (HDAC3/NCOR2) [µM] | IC50 (HDAC4) [µM] | IC50 (HDAC5) [µM] | IC50 (HDAC6; read-out: Human HDAC6 IC50) [µM] | IC50 (HDAC6; [2]) [µM] | IC50 (HDAC7) [µM] | IC50 (HDAC8) [µM] | IC50 (HDAC9) [µM] | IC50 (HDAC10) [µM] | IC50 (HDAC11) [µM] | SMILES
> 30 | > 30 | > 30 | > 30 | > 30 | > 30 | 0.023 | 0.023 | > 30 | > 30 | > 30 | > 30 | > 30 | FC(F)c1nnc(-c2cnc(NC3(c4ccccc4)CC3)nc2)o1 [Example 4, 5-(5-(difluoromethyl)-1,3,4-oxadiazol-2-yl)-N-(1-phenylcyclopropyl)pyrimidin-2-amine]
> 30 | > 30 | > 30 | > 30 | > 30 | > 30 | 0.038 | 0.038 | > 30 | > 30 | > 30 | > 30 | > 30 | CC(C)(Nc1ncc(-c2nnc(C(F)F)o2)cn1)c1ccc(F)cc1 [Example 9, 5-(5-(difluoromethyl)-1,3,4-oxadiazol-2-yl)-N-(2-(4-fluorophenyl)propan-2-yl)pyrimidin-2-amine]
> 30 | > 30 | > 30 | > 30 | > 30 | > 30 | 0.028 | 0.028 | > 30 | > 30 | > 30 | > 30 | > 30 | C[C@@H](Nc1ncc(-c2nnc(C(F)F)o2)cn1)c1ccc(F)cc1F [Example 99-R, 5-[5-(difluoromethyl)-1,3,4-oxadiazol-2-yl]-N-[(1R)-1-(2,4-difluorophenyl)ethyl]pyrimidin-2-amine]

Further lines, the compound ahead of its results:

SMILES | IC50 (HDAC1; read-out: Human HDAC1 IC50) [µM] | IC50 (HDAC1; [1]) [µM] | IC50 (HDAC2) [µM] | IC50 (HDAC3/NCOR2) [µM] | IC50 (HDAC4) [µM] | IC50 (HDAC5) [µM] | IC50 (HDAC6; read-out: Human HDAC6 IC50) [µM] | IC50 (HDAC6; [2]) [µM] | IC50 (HDAC7) [µM] | IC50 (HDAC8) [µM] | IC50 (HDAC9) [µM] | IC50 (HDAC10) [µM] | IC50 (HDAC11) [µM]
CS(=O)(=O)CC(Nc1ncc(-c2nnc(C(F)F)o2)cn1)c1ccc(F)cc1 (single isomer, unassigned) [161(+), 5-(5-(difluoromethyl)-1,3,4-oxadiazol-2-yl)-N-(1-(4-fluorophenyl)-2-(methylsulfonyl)ethyl)pyrimidin-2-amine] | > 30 | > 30 | > 30 | > 30 | > 30 | > 30 | 0.043 | 0.043 | > 30 | > 30 | > 30 | > 30 | > 30
O=C(NCC(Nc1ncc(-c2nnc(C(F)F)o2)cn1)c1ccc(F)cc1)C1CC1 (single isomer, unassigned) [168(+), N-(2-((5-(5-(difluoromethyl)-1,3,4-oxadiazol-2-yl)pyrimidin-2-yl)amino)-2-(4-fluorophenyl)ethyl)cyclopropanecarboxamide] | > 30 | > 30 | > 30 | > 30 | 13.8 | > 30 | 0.029 | 0.029 | 24.4 | > 30 | > 30 | > 30 | > 30
Fc1ccc(C2(Nc3ncc(-c4nnc(C(F)F)o4)cn3)CC2)cc1 [Example 5, 5-(5-(difluoromethyl)-1,3,4-oxadiazol-2-yl)-N-(1-(4-fluorophenyl)cyclopropyl)pyrimidin-2-amine] | > 100 | > 100 | > 30 | > 30 | > 30 | > 30 | 0.034 | 0.034 | > 30 | > 30 | > 30 | > 30 | > 30
Fc1cccc(F)c1C1(Nc2ncc(-c3nnc(C(F)F)o3)cn2)CC1 [Example 11, 5-(5-(difluoromethyl)-1,3,4-oxadiazol-2-yl)-N-(1-(2,6-difluorophenyl)cyclopropyl)pyrimidin-2-amine] | > 100 | > 100 | > 30 | > 30 | > 30 | > 30 | 0.006 | 0.006 | > 30 | > 30 | > 30 | > 30 | > 30
Fc1ccc(C(CC(F)(F)F)Nc2ncc(-c3nnc(C(F)F)o3)cn2)cc1 (stereo not drawn) [Example 13, 5-(5-(difluoromethyl)-1,3,4-oxadiazol-2-yl)-N-(3,3,3-trifluoro-1-(4-fluorophenyl)propyl) pyrimidin-2-amine] | > 30 | > 30 | > 30 | > 30 | > 30 | > 30 | 0.036 | 0.036 | > 30 | > 30 | > 30 | > 30 | > 30
Fc1ccc(C2(Nc3ncc(-c4nnc(C(F)F)o4)cn3)CC2)c(Cl)c1 [Example 62, N-(1-(2-chloro-4-fluorophenyl)cyclopropyl)-5-(5-(difluoromethyl)-1,3,4-oxadiazol-2-yl)pyrimidin-2-amine] | > 30 | > 30 | > 30 | > 30 | > 30 | > 30 | 0.008 | 0.008 | > 30 | > 30 | > 30 | > 30 | > 30
